In paper PMC8968952, “Modulation of ERCC1-XPF Heterodimerization Inhibition via Structural Modification of Small Molecule Inhibitor Side-Chains” (Frontiers in Oncology, 2022):
pIC50: −log10 of the molar value.

Tests used:
[1] = test system: ERCC1 or XPF levels in A549 cells; assay: Western blot of ERCC1 and XPF protein levels (PLA control); format: cell-based, human; details: 2 µM, 24 h
Protocol: page 1: Supplementary Material […] Supplementary Figure 1. ERCC1-XPF mediated cleavage of the stem-loop DNA substrate, in which the FAM signal is quenched, releases the fluorescently tagged octanucleotide. Triplicate measurements of the control (DMSO) and the effect of 10 μM of compounds 4 and 6 on the incision activity is shown. 2 PLA Control Experiments Supplementary Figure 2. A549 cells were seeded in 6-well culture dishes (Thermo Fishes Scientific) at a density of 0.3 X 10^6 cells/well in a final volume of 3 ml. […] The chambers were incubated for 24 h and then washed with PBS and the cells were solubilized with RIPA buffer in the presence of protease inhibitor cocktail (Cell Signaling Technology) plus 2 mM EDTA. […] EpiGentek), XPF (LS- C173159, 1:1000; LifeSpan BioSciences, Seattle, WA) and B-Actin (sc-47778, 1:1000; Santa Cruz) primary antibodies followed by secondary anti-mouse or anti-rabbit secondary HRP-conjugated secondary antibodies. ECL chemiluminescent substrate (Promega) was used to detect the proteins. 3 Cytotoxicity Analysis Supplementary Figure 3. Cytotoxicity assay using colony forming assay 4 HCT-116 Derived XPF Knockout Cells For CRISPR deletion of XPF from HCT-116 cells, the pSpCas9(BB)-2A-GFP (pX458) vector (Addgene plasmid # 48138) was used. The short guide sequence to target XPF exon one was: 5'- [NT] 3' and target XPF exon eight was: 5'- [NT]3'. […]

HCT-116 cells [2] = assay: Clonogenic survival assay, UV treatment; format: cell-based, human
Protocol: HCT-116 cells (100–800 cells depending on the UV dose) were plated in triplicate in 60-mm Petri dishes in DMEM/F12 medium. Following overnight attachment of the cells in a humidified atmosphere containing 5% CO2 at 37°C, the cells were treated with 0.5 μM compound 6 or 10 in DMSO (as described in section 2.7) for 4 h before the medium was removed, and the cells exposed to increasing doses (0–10 J/m^2) of UV-C radiation. The cells were then cultured for a further 24 h in the presence of inhibitor and then for an additional 9 days in the absence of inhibitor to allow for colony formation. Colonies were stained with crystal violet and counted using a Colcount instrument (Oxford Optronix, Abingdon UK) to facilitate determination of plating efficiency and surviving fraction. Data were plotted using GraphPad Prism version 5.04 software.

HCT-116 cells [3] = assay: Clonogenic survival assay, cyclophosphamide treatment; format: cell-based, human
Protocol: […] The medium was then replaced with drug and inhibitor-free fresh medium. After incubation for another 9 days to allow for colony formation, the plates were stained with crystal violet, colonies were counted, and plating efficiency and surviving fraction were calculated. Data were plotted using GraphPad Prism version 5.04. software.

HCT-116 cells [4] = assay: Clonogenic survival assay, ionizing radiation; format: cell-based, human; details: 0.5 and 1 μM, 0 to 8 Gy γ-radiation
Protocol: The effectiveness of compound 6 for sensitization of cells to ionizing radiation was also assessed using the clonogenic survival assay. Briefly, 200-3000 of HCT-116 cells (depending on the radiation dose) were seeded and after 24 hours the cells were pretreated with 0.5 or 1 µM of compound 6 in DMSO for 4 hours followed by exposure to increasing doses of γ-radiation (^60Co Gammacell; Atomic Energy of Canada Limited, Ottawa) from 0 to 8 Gy (at a dose rate of 0.8 Gy/min) and kept for an additional 24 hours in inhibitor-containing medium. The medium was then replaced with fresh medium without the compound, and the plates were incubated at 37°C for 9 more days before staining and determining the number of colonies. Data were plotted using GraphPad Prism version 5.04 software.

[5] = Bidirectional permeability in Caco-2 cells; format: in vitro ADME; details: human
Protocol: (§1) The ADME (absorption, distribution, metabolism, and excretion) profile of our lead compound 6 was determined by standard protocols carried out by WuXi AppTec (Shanghai) Co (https://www.wuxiapptec.com/). The following tests were conducted: distribution coefficient (log D at pH 7.4), aqueous solubility (Kinetic), metabolic stability in human liver microsomes and cryopreserved human hepatocytes, bidirectional permeability in Caco-2 cells, serum protein binding, and cytochrome P450 (CYP) inhibition (CYP1A2, CYP2C9, CYP2C19, CYP2D6, and CYP3A4-M).

CYP2D6 = CYP2D6 (Homo sapiens, UniProt P10635); assay: Cytochrome P450 inhibition, CYP2D6; format: in vitro ADME
Protocol: as §1

CYP2D6, sequence (P10635 whole entry): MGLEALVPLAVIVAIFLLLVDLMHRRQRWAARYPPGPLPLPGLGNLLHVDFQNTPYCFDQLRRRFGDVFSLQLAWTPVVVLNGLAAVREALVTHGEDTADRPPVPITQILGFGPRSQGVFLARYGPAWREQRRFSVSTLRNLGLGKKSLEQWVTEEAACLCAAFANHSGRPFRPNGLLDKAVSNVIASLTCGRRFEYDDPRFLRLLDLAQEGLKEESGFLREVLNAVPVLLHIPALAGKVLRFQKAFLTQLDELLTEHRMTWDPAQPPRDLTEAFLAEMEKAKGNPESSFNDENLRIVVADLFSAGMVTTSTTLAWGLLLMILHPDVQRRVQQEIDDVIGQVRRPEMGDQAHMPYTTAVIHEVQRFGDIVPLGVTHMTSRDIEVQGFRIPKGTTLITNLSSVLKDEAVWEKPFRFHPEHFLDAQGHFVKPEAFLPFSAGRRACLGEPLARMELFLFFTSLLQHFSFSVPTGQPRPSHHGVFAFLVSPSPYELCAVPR

SMILES: COc1ccc2nc3cc(Cl)ccc3c(Nc3ccc(O)c(CN4CCN(CCN(C(C)C)C(C)C)CC4)c3)c2c1 [Compound 6]
- levels of ERCC1 or XPF vs untreated cells [1]: no significant differences
- sensitization to UVC radiation (in words) (HCT-116 cells [2]; 0.5 μM): sensitized cells to UVC radiation
- cell survival after UVC (HCT-116 cells [2]; 0.5 μM compound, 4 J/m^2 UVC): < 50%
- sensitization to cyclophosphamide (in words) (HCT-116 cells [3]; 0.5 μM 6, 10 at 1.0 μM or 0.5 μM): sensitized the cells to cyclophosphamide
- cell survival with cyclophosphamide (HCT-116 cells [3]; 0.5 μM compound, 50 μM cyclophosphamide): 62%
- cell survival at 250 μM cyclophosphamide (in words) (HCT-116 cells [3]; 0.5 μM compound, 250 μM cyclophosphamide): almost no cells surviving
- sensitization to ionizing radiation (in words) (HCT-116 cells [4]): sensitized HCT-116 cells in a dose-dependent manner
- efflux ratio [5]: 27.5
- CYP2D6 inhibition grade (in words) (CYP2D6): moderate inhibitor
- pIC50 (CYP2D6): 5.53
